The structures appear in SMILES notation. Read-outs that look alike come from different tables or passages of the source.

The text below walks through data of patent US20060093575A1, “Oxaliplatin anti-resistance agent” (CENTRE NATIONAL DE LA RECHERCHE SCIENTIFIQUE, priority 2002, published 2006).

One experiment deals with HCT116. The experiment can be described thus: colorimetric cell growth test, medication incubated 48 hours. To be noted: for relative resistance (IC50 resistant clone / IC50 parental clone): HCT116 (parental clone); for IC50: read-out: IC50 (concentration that reduces cell growth by 50%).
Another experiment concerns HCT116/R. The experiment is described as above. To be noted: for relative resistance (IC50 resistant clone / IC50 parental clone): HCT116/R versus HCT116; for crossed resistance: HCT116R versus HCT116; for IC50: read-out: IC50 (concentration that reduces cell growth by 50%).
A further experiment deals with SW620. The experiment is described as above. Conditions: for relative resistance (IC50 resistant clone / IC50 parental clone): SW620 (parental clone); for IC50: read-out: IC50 (concentration that reduces cell growth by 50%).
For another experiment, the system named is SW620/R. The description is as above. Conditions: for relative resistance (IC50 resistant clone / IC50 parental clone): SW620/R versus SW620; for crossed resistance: SW620R versus SW620; for IC50: read-out: IC50 (concentration that reduces cell growth by 50%).
The subject of the next experiment is HCT116/R1. The experiment in a line: oxaliplatin resistance of variant line versus HCT116/S. It counts as cell-based. Conditions: HCT116/R1 clone. An excerpt: the line HCT116/R1 derived from the line HCT116 after acquisition of oxaliplatin resistance and cloning (corresponding to a clone 30 times more resistant than the sensitive reference line HCT116/S),
The test system of another experiment is HCT116/Rev1. The experiment in a line: oxaliplatin sensitivity of variant line versus HCT116/S. To be noted: HCT116/Rev1, after culture without oxaliplatin for 6 months. It counts as cell-based. The text has this:
the variant HCT116/Rev1 derived from the line HCT116/R1 after culture in the absence of oxaliplatin for 6 months.

The next experiment relates to HCT116/Rev2. The experiment can be described thus: oxaliplatin resistance of variant line versus HCT116/S. It counts as cell-based. To be noted: HCT116/Rev2, after culture without oxaliplatin for 15 months. An excerpt:
the variant HCT116/Rev2 derived from the line HCT116/R2 after culture in the absence of oxaliplatin for 15 months. This variant is characterized by an only partial loss of oxaliplatin resistance (variant HCT116/Rev2 is 16 times more resistant than line HCT116/S).

The subject of experiment [1] is HCT116R. Conditions: treated 48 hours. The method, then:
A control is performed without contact with any medication (Co).

Experiment [2] has as its system SW620R. The experiment in a line: degree of apoptosis by cytofluorometry, annexine V labeling. It counts as cell-based. To be noted: treated 48 hours. The method, then: (§1) A control is performed without contact with any medication (Co). The degree of apoptosis is then determined by cytofluorometry using labeling by annexine V. Independently, activation of the apoptosis effector protein Caspase 3 was evaluated in cells HCT116 and HCT116R after treatment for 24 hours with oxaliplatin in order to validate the entry into apoptosis of the cells as observed by cytofluorometry (FIG. 2C).

The subject of experiment [3] is Caspase 3 in HCT116R cells. The experiment in a line: activation of apoptosis effector protein Caspase 3. It counts as cell-based. To be noted: treated 24 hours. The method, then:
as §1

Experiment [4] deals with Bax protein in HCT116 cells. The experiment can be described thus: detection of Bax by Western blot. To be noted: HCT116, 15 μM for 48 hours (or 50 μM for 24 hours). It counts as cell-based. The method, then: (§2) Legend to FIG. 1: detection of Bax by Western blot in the absence of, or under the effect of treatment, with oxaliplatin in the HCT116 model. The cells are not treated or treated with oxaliplatin at a level of 15 μM for 48 hours (or 50 μM for 24 hours) before preparation of cell lysates. Tubulin expression is used as a control of equivalent protein deposits.

For experiment [5], the system named is Bax protein in HCT116R cells. The experiment in a line: detection of Bax by Western blot. It counts as cell-based. To be noted: 15 μM for 48 hours (or 50 μM for 24 hours). The method, then:
as §2

In experiment [6] the test system is Bax in HCT116/R1 cells. The experiment can be described thus: Bax activation, active-conformation antibody, flow cytometry. It counts as cell-based. Conditions: HCT116/R1, 12, 24 or 48 hours with 15 μM, compared to HCT116/S. The method, then: (§3) Legend to FIGS. 4A to 4C: Detection of activation of Bax by an antibody specific for the active conformation of Bax and intracellular analysis by flow cytometry. The cells are fixed, permeabilized and then incubated with the antibody specific for the active conformation of […]. Finally visualization is carried out by incubation with the secondary antibody coupled with FITC. The labeling of untreated cells is shown by the curve in fine black line. That of treated cells (12, 24 or 48 hours with 15 μM oxaliplatin) is shown by the curves in thick black line. The appearance of strongly labeled cells (curves in thick black line shifted to the right) gives evidence of activation of Bax.

Experiment [7] has as its system Bax in HCT116/Rev1 cells. Described as above. It counts as cell-based. Conditions: HCT116/Rev1, 12, 24 or 48 hours with 15 μM. The method, then: as §3
Another experiment relates to Bak in HCT116/R1 cells. The experiment can be described thus: Bak activation, active-conformation antibody, flow cytometry. Conditions: HCT116/R1, 12, 24 or 48 hours with 15 μM. It counts as cell-based. The method, then: (§4) Legend to FIGS. 5A to 5E: Detection of activation of Bak by an antibody specific for the active conformation of Bak and intracellular analysis by flow cytometry. The cells are fixed, made permeable and then incubated with the antibody specific for the active conformation of […]. Finally visualization is carried out by incubation with the secondary antibody coupled to FITC. Labeling of untreated cells is shown by the curve in the fine black line. That of treated cells (12, 24 or 48 hours with 15 μM oxaliplatin) is shown by the curves in the thick black line. The appearance of strongly labeled cells (curves in the thick black line shifted to the right) gives evidence of activation of Bak. This experiment was reproduced two times.

Another experiment has as its system Bak in HCT116/R2 cells. The experiment is described as above. To be noted: HCT116/R2, 12, 24 or 48 hours with 15 μM. It counts as cell-based. The method, then: as §4
Another experiment deals with Bak in HCT116/Rev1 cells. The experiment is described as above. Conditions: HCT116/Rev1, 12, 24 or 48 hours with 15 μM. It counts as cell-based. The method, then:
as §4

A further experiment deals with Bak in HCT116/Rev2 cells. The description is as above. It counts as cell-based. Conditions: HCT116/Rev2, 12, 24 or 48 hours with 15 μM. The method, then: as §4
Experiment [8] concerns Bax in HCT116/R1 cells. The experiment can be described thus: overall level of Bax expression on exposure to oxaliplatin. It counts as cell-based. The text has this:
(§5) The overall level of Bax expression is equivalent for the lines HCT116/S, HCT116/R1 and HCT116/Rev1.

In experiment [9] the test system is Bax in HCT116/Rev1 cells. The experiment is described as above. It counts as cell-based.
Text: as §5

Another experiment deals with Bax in HCT116/S cells. The experiment is described as above. It counts as cell-based.
Text: as §5

Experiment [10] has as its system HCT116R. The experiment in a line: degree of apoptosis by cytofluorometry, Mitocapture dye. To be noted: treated 24 hours. It counts as cell-based. The method, then:
(§6) Legend to FIGS. 3A and 3B: cells HCT116 (and R) and SW620 (and R) are treated, prior to determination of the degree of apoptosis, for 24 hours by arsenic trioxide (As), lonidamine (LND) or are left without treatment (control, Co). The degree of apoptosis is then determined by cytofluorometry after labeling with the dye “Mitocapture” which fluoresces differently in apoptotic cells and intact cells (with relation to mitochondrial integrity).

The test system of experiment [11] is SW620R. The experiment is described as above. It counts as cell-based. Conditions: treated 24 hours. The method, then:
as §6

Where [12] appears, read: HCT116, 48 hours, average ± SD, at least three experiments.
Setting [13] is: HCT116/R, 48 hours, average ± SD, at least three experiments.
[14] abbreviates: SW620, 48 hours, average ± SD, at least three experiments.
[15] abbreviates: SW620/R, 48 hours, average ± SD, at least three experiments.

Consider `N.N.[Cl][Pt][Cl]` [Cisplatin], for which the “relative resistance (IC50 resistant clone / IC50 parental clone)” value in the experiment with HCT116 was “(1.0)”; in the experiment with HCT116/R, “(2.9)”; in the experiment on SW620, “(1.0)”; with SW620/R, “(1.4)”. Further, the IC50 in the experiment with HCT116 (setting [12]) was found to be 4.7 ± 1.8 µM; with HCT116/R (setting [13]) it was 13.4 ± 6.6 µM; with SW620 (setting [14]), 7 ± 1.7 µM; in the experiment with SW620/R (setting [15]) it was 9 ± 1.7 µM. Besides, the crossed resistance result in the experiment with HCT116/R and in the experiment on SW620/R was “very little or no crossed resistance” throughout.
Regarding `CCc1c2c(nc3ccc(OC(=O)N4CCC(N5CCCCC5)CC4)cc13)-c1cc3c(c(=O)n1C2)COC(=O)[C@]3(O)CC` [Irinotecan], the IC50 in the experiment with HCT116 (Homo sapiens, HCT-116, 48 h) came to 7.7 ± 3.8 µM; with HCT116/R (Homo sapiens, HCT-116, 48 h), 9.5 ± 4.2 µM; in the experiment on SW620 (Homo sapiens, SW-620, 48 h), 23.3 ± 0.6 µM; with SW620/R (Homo sapiens, SW-620, 48 h), 11.7 ± 2.5 µM. The crossed resistance result in the experiment on HCT116/R and with SW620/R was “very little or no crossed resistance” in each case.
As to `O=C1[O][Pt]2([NH][C@@H]3CCCC[C@H]3[NH]2)[O]C1=O` [Oxaliplatin, [(1R, 2R)-1,2-cyclohexanediamine-N,N′] [oxalato (2-)-O,O′] platinum], the “times more resistant than sensitive reference line HCT116/S” value in the experiment with HCT116/R1 turned out to be 30 times. Also, the oxaliplatin sensitivity entry in the experiment with HCT116/Rev1 is “comparable to HCT116/S”. Moreover, the “times more resistant than line HCT116/S” value in the experiment on HCT116/Rev2 is listed as 16 times. Moreover, the “induction of apoptosis (annexine V)” value in the experiment on HCT116R [1] and with SW620R [2] was “resist induction of apoptosis” in each case. Besides, in experiment [3], the “activation of caspase 3” value was “lack of activation of caspase 3”. In addition, the results for the “Bax protein expression (Western blot)” value in experiment [4] and in experiment [5] were “over-expresses it” and “does not express the Bax protein”, respectively. In addition, the “activation of Bax” value was “reduced and delayed” in the experiment on Bax in HCT116/R1 cells [6]; “return to early activation of Bax” in the experiment with Bax in HCT116/Rev1 cells [7]. Moreover, the “activation of Bak” value is listed as “delayed” with Bak in HCT116/R1 cells, “delayed” in the experiment with Bak in HCT116/R2 cells, “repeat the level of activation of Bak of the sensitive line HCT116/S” with Bak in HCT116/Rev1 cells and “repeat the level of activation of Bak of the sensitive line HCT116/S” with Bak in HCT116/Rev2 cells. Also, the “overall level of Bax expression” value in the experiment on Bax in HCT116/R1 cells [8], in the experiment with Bax in HCT116/Rev1 cells [9] and with Bax in HCT116/S cells was “induces an over-expression of Bax” in each case. For the same compound, the “relative resistance (IC50 resistant clone / IC50 parental clone)” value in the experiment on HCT116 stood at 1.0; in the experiment on HCT116/R it was 68.4; in the experiment on SW620 it was 1.0; with SW620/R it was 18.3. In addition, the IC50 with HCT116 (setting [12]) amounted to 0.32 ± 0.08 µM; in the experiment on HCT116/R (setting [13]), 21.9 ± 6.3 µM; in the experiment with SW620 (setting [14]), 3.4 ± 0.6 µM; with SW620/R (setting [15]), 62.3 ± 12.9 µM. For the same compound, the “times more resistant than the original line” value with SW620/R (SW620R versus SW620, as stated in text) came to 20 times.
In the case of `O=C(O)c1nn(Cc2ccc(Cl)cc2Cl)c2ccccc12` [lonidamine], the “apoptotic induction (Mitocapture)” value in the experiment on HCT116R [10] and in the experiment on SW620R [11] was “resistant to apoptotic induction” in each case.
